Results as given in ChEMBL document CHEMBL2429867, “Generation by mutasynthesis of potential neuroprotectant derivatives of the bipyridyl collismycin A” (2013).

Species on record: Danio rerio
Experiment: Neuroprotective activity in 3 days postfertilized zebrafish larvae assessed as reduction of all-trans retinoic acid-induced apoptosis at 1 uM after 24 hrs by fluorescence microscopy
Type: functional
Design: scale not given: the % may be the effect or the level left

SMILES	Activity [%]
COc1cc(-c2cccc(C)n2)nc(/C=N/O)c1SC	40
COc1cc(-c2cc(C)ccn2)nc(/C=N/O)c1SC	70
O=C(O)CCCCC1CCSS1 (stereo not drawn) [LIPOIC ACID, ALPHA]	61
